Experimental data taken from patent US20260144805A1, “CANNABIDIOL COMPOSITIONS FOR USE IN THE TREATMENT OF NEURODEGENERATIVE AND NEUROLOGICAL DISORDERS” (JAZZ PHARMACEUTICALS RESEARCH UK LIMITED, priority 2022, published 2026).

Experiments:
Type in all cases: in vivo
rat VPA model [1] = assay: Irritability-like behaviour: bottle brush test in rat VPA model, juvenile P30 and adult (Example 5; DS = DS-E); details: risperidone 0.125 mg/kg
Description: (§1) Time-mated female Wistar rats were administered a single dose of valproic acid (VPA, 600 mg/kg, i.p.) on gestational day 12.5. Male offspring were delivered and confirmation of the VPA induced developmental deficit was rapidly achieved by examination of characteristic “tail kinks” in the juvenile animals. The timeline of experiments is outlined in FIG. 8 and animals were randomly allocated to treatment groups (Table O).
(§2) Control animals were administered sterile saline (0.9% w/v, i.p.) in utero and the vehicle control (ethanol: Kolliphor HS15: saline (1:1:18, v/v/v), i.p.
To test irritability-like behavior we employed the bottle-brush test modified for rats (Riittinen et al. 1986 Dev Psychobiol 19:105-111). Irritability-like behavior was examined by measuring aggressive and defensive responses during the bottle-brush test carried out in juvenile animals immediately after play behavior evaluation at P30 and again in adult animals on P59. Irritability-like behavior testing was performed under dark conditions with a red light and infrared camera recording. Testing consisted of 10 trials per rat in plastic cages (377×325×170 mm) with fresh bedding. During each trial, the rat was placed at the back of the cage. A bottle-brush was rotated toward the animal's whiskers (from the front of the cage). The brush was rotated around the whiskers of the rat for approximately 1 second. The brush was then rotated back to the front of the cage where it hangs vertically for approximately 2 seconds, during which behavioural responses were recorded. An intertrial interval of 10 second was used.
Employing video analysis of the test, the following were scored as aggressive responses: smelling the brush, biting the brush (during the initial phase of rotating the brush forward and back to the starting position), boxing the target, following the brush, exploring the brush (using paws or mouth to manipulate the brush without biting or boxing), mounting the brush, and delayed biting (during the 2 s that the brush hung at the starting position). Additionally, the following were scored as defensive responses: escaping from the brush, digging, burying, jumping, climbing, vocalization, freezing, and grooming. Frequency of each response and the sum of aggressive and defensive behaviours were recorded.
(§3) All data was assessed for outliers (ROUT; Prism V9.02) and then normality using D'Agostino and Pearson normality test for n=8, or Shapiro-Wilks test for n<8 or unequal groups. Data that were non-normally distributed were analysed using Kruskal-Wallis followed by planned comparisons with Dunn's correction. Normally distributed data were analysed using one-way ANOVA or two-way ANOVA followed by planned comparisons with Sidak's correction. […] Statistical significance was defined as p<0.05 using Prism 9.0.2 software for analysis.

rat VPA model [2] = assay: Open field test (locomotor activity, circling, grooming, centre zone) P56-57 in rat VPA model (Example 5; DS = DS-E); details: adult, risperidone 0.125 mg/kg
Description: as §1, §2
Animals were scored for locomotor activity and exploratory behavior in a two 10-minute trials within an open field arena over two days. Each day the animals were placed into a […] black Perspex box with 30 cm side walls, under low light and monitored via remote video capture for spontaneous activity. Linked to Ethovision XT image analysis software this was analysed for total distance moved and number and duration of center zone crossings. Manual scoring of the videos was then conducted (blinded to treatment group) to determine frequency of circling behavior (number of 360 degree turns) and time spent grooming.
as §3

rat VPA model [3] = assay: Marble burying test P58 in rat VPA model (Example 5; DS = DS-E); details: adult P58, risperidone 0.125 mg/kg
Description: as §1, §2
The marble burying test has been employed as an animal model of anxiety and impulsive behavior. […] Over a 10-minute test period animals were allowed to freely explore the apparatus and subsequently removed whereupon marbles covered by at least one half with bedding were considered buried and this number was recorded and was the main outcome measure for this behavior. Video recording of the test period was evaluated for locomotor activity and scored for frequency and duration of digging behavior.
as §3

[4] = tested on: valproic acid-induced autism spectrum disorder (ASD) mouse model; assay: Valproic acid-induced ASD model, autism-like behaviors, DS vs sCBD and risperidone (Example 6, Table P); set-up: key to Adult open field hyperactivity (spontaneous LMA on day 1) / Adult open field hyperactivity (LMA on day 2) / Adult marble burying / Adult grooming / Juvenile vocalisation: +: improvement; Ø: no change; −: not tested; details: 0.125 mg/kg I.P.
From the text: (§4) The main objective of the following study was to assess the effect of the drug substance (DS) of Example 1 in ameliorating autism-like behavior in valproic acid-induced autism spectrum disorder (ASD) mouse model (FIGS. 19A-B).

[5] = tested on: valproic acid-induced autism spectrum disorder (ASD) mouse model; assay: Valproic acid-induced ASD model, social behavior (Example 6, Table P); set-up: key: +: improvement; Ø: no change; −: not tested; details: 0.125 mg/kg I.P.
From the text: as §4

[6] = tested on: valproic acid-induced autism spectrum disorder (ASD) mouse model; assay: Valproic acid-induced ASD model, bottle-brush test (irritability) (Example 6, Table P); set-up: key: +: improvement; Ø: no change; −: not tested; details: 0.125 mg/kg I.P.
From the text: as §4

[7] = juvenile P30, 8 days, vs VPA/VEH

`Cc1nc2n(c(=O)c1CCN1CCC(c3noc4cc(F)ccc34)CC1)CCCC2` [Risperidone] was tested, and the “defensive behaviours, bottle brush” value (rat VPA model [1]; adult) was “no significant effect”, the “aggressive behaviour, bottle brush” value (rat VPA model [1]; adult, all days of assessment) was “significantly reduced” and the “irritability score, bottle brush” value (rat VPA model [1]; adult, all four assessment days) was “significantly reduced”. For the same compound, the “aggressive responses, bottle brush” value (rat VPA model [1]; [7]) was “significantly reduced”, the “irritability score (aggressive + defensive), bottle brush” value (rat VPA model [1]; [7]) was “no effect” and the grooming behaviour (rat VPA model [2]; day 1) was “significantly reduced”. For the same compound, the “frequency of centre zone crossings” value (rat VPA model [2]; day 1, vs VPA/Veh) was “significant decrease”, the circling behaviour (rat VPA model [2]; day 2) was “significantly reversed” and the grooming behaviour (rat VPA model [2]; day 2) was “significantly reduced”. For the same compound, the “number of centre zone crossings” value (rat VPA model [2]; day 2) was “significantly reduced”, the “time spent in the centre zone” value (rat VPA model [2]; day 2) was “significantly reduced” and the “increase in locomotor activity (distance travelled)” value (rat VPA model [2]; day one) was “significantly prevented”. For the same compound, the “time spent in the centre zone” value (rat VPA model [2]; day one) was “significantly reduced”, the “increase in locomotor activity (distance travelled)” value (rat VPA model [2]; day two) was “significantly prevented” and the VPA-induced digging behaviour (rat VPA model [3]) was “significantly reduced”. The “number of marbles buried” value (rat VPA model [3]) was “no significant effect”, the “number of marbles buried” value (rat VPA model [3]; listed as risperidone) was “significantly reduced” and the Adult grooming ([4]; control beside DS) was “+”. The Adult marble burying ([4]; control beside DS) was “+”, the “Adult open field hyperactivity (LMA on day 2)” value ([4]; control beside DS) was “+” and the “Adult open field hyperactivity (spontaneous LMA on day 1)” value ([4]; control beside DS) was “+”. The Adult grooming ([4]; control beside sCBD) was “+”, the Adult marble burying ([4]; control beside sCBD) was “+” and the “Adult open field hyperactivity (LMA on day 2)” value ([4]; control beside sCBD) was “+”. The “Adult open field hyperactivity (spontaneous LMA on day 1)” value ([4]; control beside sCBD) was “+”, the Adult marble burying ([4]; control beside sCBD-2) was “+” and the “Adult open field hyperactivity (LMA on day 2)” value ([4]; control beside sCBD-2) was “Ø”. For the same compound, the “Adult open field hyperactivity (spontaneous LMA on day 1)” value ([4]; control beside sCBD-2) was “+”, the “Adult active social behavior” value ([5]; control beside DS) was “Ø” and the Juvenile play behavior ([5]; control beside DS) was “Ø”. For the same compound, the “Adult active social behavior” value ([5]; control beside sCBD) was “+”, the Juvenile play behavior ([5]; control beside sCBD) was “+” and the “Adult active social behavior” value ([5]; control beside sCBD-2) was “Ø”. For the same compound, the Juvenile play behavior ([5]; control beside sCBD-2) was “Ø”, the “Adult bottle brush irritability test” value ([6]; control beside DS) was “+” and the “Juvenile bottle brush irritability test” value ([6]; control beside DS) was “Ø”. For the same compound, the “Adult bottle brush irritability test” value ([6]; control beside sCBD) was “+”, the “Juvenile bottle brush irritability test” value ([6]; control beside sCBD) was “+” and the “Adult bottle brush irritability test” value ([6]; control beside sCBD-2) was “+”. For the same compound, the “Juvenile bottle brush irritability test” value ([6]; control beside sCBD-2) was “+”.
